Patent publication US9695155B2, “Herbicidal substituted pyrimidinyloxy benzene compounds” (E. I. DU PONT DE NEMOURS AND COMPANY, priority 2013, dated 2017)

Tests used:
galium = experiment: Test C postemergence; type: in vivo, Galium aparine
Method in brief: (§1)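 Visual injury score versus untreated controls, 0 = no effect, 100 = complete control, taken 13 to 15 days after treatment in the greenhouse. Pre-emergence pots held loam/sand; post-emergence plants grew in sphagnum peat/vermiculite mix and were sprayed at the 1- to 4-leaf stage.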

wheat, winter = experiment: Test C preemergence; type: in vivo, Triticum aestivum; settings: for Wheat plant response rating: preemergence
Method in brief: as §1

corn = experiment: Test A postemergence; type: in vivo, Zea mays; settings: 0 to 100 scale where 0 is no effect and 100 is complete control
Method in brief: (§2)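 Pre- and postemergence greenhouse screen. Soil: loam + sand. Spray carrier: solvent mixture, non-phytotoxic, with surfactant. Post timing at 1–2 leaves, height 2–10 cm. Readout: visual injury on a 0–100 scale roughly 10 days after application, untreated plants as reference.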

giant foxtail [1] = experiment: Test A postemergence; type: in vivo, Setaria faberii; settings: 0 to 100 scale where 0 is no effect and 100 is complete control
Method in brief: as §2

morningglory [2] = experiment: Test A postemergence; type: in vivo, Ipomoea spp.; settings: 0 to 100 scale where 0 is no effect and 100 is complete control
Method in brief: as §2

chickweed = experiment: Test C postemergence; type: in vivo, Stellaria media
Method in brief: as §1

barnyardgrass [3] = experiment: Test B flooded paddy test; type: in vivo, Echinochloa crus-galli; settings: Flood, 250 g ai/ha; 0 to 100 scale where 0 is no effect and 100 is complete control
Method in brief: (§3)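 2-leaf stage plants; pots flooded to 3 cm, compound added to paddy water, depth maintained. Greenhouse 13–15 d. Visual rating vs untreated controls, 0 (no effect) to 100 (complete control); dash = no result.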

morningglory [4] = experiment: Test C postemergence; type: in vivo, Ipomoea coccinea
Method in brief: as §1

pigweed = experiment: Test C preemergence; type: in vivo, Amaranthus retroflexus; settings: for Pigweed plant response rating: preemergence
Method in brief: as §1

yellow nutsedge = experiment: Test C preemergence; type: in vivo, Cyperus esculentus; settings: for Nutsedge, Yellow plant response rating: preemergence
Method in brief: as §1

barnyardgrass [5] = experiment: Test A postemergence; type: in vivo, Echinochloa crus-galli; settings: 0 to 100 scale where 0 is no effect and 100 is complete control
Method in brief: as §2

giant foxtail [6] = experiment: Test C preemergence; type: in vivo, Setaria faberii; settings: for Foxtail, Giant plant response rating: preemergence
Method in brief: as §1

large (Lg) crabgrass = experiment: Test A postemergence; type: in vivo, Digitaria sanguinalis; settings: 0 to 100 scale where 0 is no effect and 100 is complete control
Method in brief: as §2

Heteranthera limosa = experiment: Test B flooded paddy test; type: in vivo; settings: Flood, 250 g ai/ha; 0 to 100 scale where 0 is no effect and 100 is complete control
Method in brief: as §3

velvetleaf [7] = experiment: Test C preemergence; type: in vivo, Abutilon theophrasti; settings: for Velvetleaf plant response rating: preemergence
Method in brief: as §1

velvetleaf [8] = experiment: Test A postemergence; type: in vivo, Abutilon theophrasti; settings: 0 to 100 scale where 0 is no effect and 100 is complete control
Method in brief: as §2

[9] = 16 g ai/ha, postemergence, 0 is no effect, 100 is complete control
[10] = 31 g ai/ha, postemergence, visual rating, scale 0 to 100 (0 no effect, 100 complete control), 13 to 15 days
[11] = 125 g ai/ha, postemergence, visual rating, scale 0 to 100 (0 no effect, 100 complete control)
[12] = Postemergence, 62 g ai/ha, scale 0 to 100 (0 no effect, 100 complete control), 13 to 15 days
[13] = 16 g ai/ha, scale 0 to 100 (0 no effect, 100 complete control)
[14] = 125 g ai/ha, scale 0 (no effect) to 100 (complete control)
[15] = Preemergence, 62 g ai/ha, scale 0 to 100, 0 no effect, 100 complete control

## N#Cc1cnn(-c2c(Oc3ncc(Cl)cn3)cccc2C(F)F)c1 [Compound 236]
galium; [9]
  Plant response rating (0 to 100), Galium: 60
galium; [10]
  Galium plant response rating: 75
galium; [11]
  Plant response rating, Galium: 85
galium; [12]
  Plant response rating, Galium: 80
wheat, winter; [13]
  Wheat plant response rating: 0
wheat, winter; [14]
  Wheat plant response rating: 60
wheat, winter; [15]
  Plant response rating, Wheat: 0
corn; 125 g ai/ha
  Corn plant response rating: 70
corn; 500 g ai/ha
  Plant response rating, Corn: 100
Giant foxtail [1]; 125 g ai/ha
  Foxtail, Giant plant response rating: 90
Giant foxtail [1]; 500 g ai/ha
  Plant response rating, Foxtail, Giant: 100
Morningglory [2]; 125 g ai/ha
  Morningglory plant response rating: 80
Morningglory [2]; 500 g ai/ha
  Plant response rating, Morningglory: 100
chickweed; [9]
  Plant response rating (0 to 100), Chickweed: 40
chickweed; [10]
  Chickweed plant response rating: 50
chickweed; [11]
  Plant response rating, Chickweed: 50
chickweed; [12]
  Plant response rating, Chickweed: 65
Barnyardgrass [3]
  Plant response rating, Barnyardgrass: 30
Morningglory [4]; [9]
  Plant response rating (0 to 100), Morningglory: 10
Morningglory [4]; [10]
  Morningglory plant response rating: 45
Morningglory [4]; [11]
  Plant response rating, Morningglory: 75
Morningglory [4]; [12]
  Plant response rating, Morningglory: 70
pigweed; [13]
  Pigweed plant response rating: 100
pigweed; [14]
  Pigweed plant response rating: 100
pigweed; [15]
  Plant response rating, Pigweed: 100
Yellow nutsedge; [13]
  Nutsedge, Yellow plant response rating: 0
Yellow nutsedge; [14]
  Nutsedge, Yellow plant response rating: 75
Yellow nutsedge; [15]
  Plant response rating, Nutsedge, Yellow: 60
Barnyardgrass [5]; 125 g ai/ha
  Barnyardgrass plant response rating: 100
Barnyardgrass [5]; 500 g ai/ha
  Plant response rating, Barnyardgrass: 100
Giant foxtail [6]; [13]
  Foxtail, Giant plant response rating: 35
Giant foxtail [6]; [14]
  Foxtail, Giant plant response rating: 100
Giant foxtail [6]; [15]
  Plant response rating, Foxtail, Giant: 100
Large (Lg) crabgrass; 125 g ai/ha
  Crabgrass, Large plant response rating: 80
Large (Lg) crabgrass; 500 g ai/ha
  Plant response rating, Crabgrass, Large: 100
Heteranthera limosa
  Plant response rating, Ducksalad: 100
Velvetleaf [7]; [13]
  Velvetleaf plant response rating: 65
Velvetleaf [7]; [14]
  Velvetleaf plant response rating: 100
Velvetleaf [7]; [15]
  Plant response rating, Velvetleaf: 100
Velvetleaf [8]; 125 g ai/ha
  Velvetleaf plant response rating: 90
Velvetleaf [8]; 500 g ai/ha
  Plant response rating, Velvetleaf: 100
